Assay results from patent US20080026486A1, “Assay Methods, Materials and Preparations” (priority 2004, published 2008).

Experiments:
[1] = test system: carbonic anhydrase II (CAII); assay: Detection of small molecules by QCRS on CAII surface; format: binding; conditions: for frequency shift on CAII surface: 12.5 μM
Experimental: The CAII surface was then used to capture 4-carboxybenzenesulfonamide (CBS […] in running PBSS buffer+0.25% MeOH).
The same CAII surface was used to detect 12.5 μM 4-carboxybenzenesulfonamide, and 12.5 μM 5-(dimethylamino)-1-naphthalenesulfonamide.

[2] = test system: mouse anti-biotin IgG; assay: Detection of proteins by SPR: biotinylated BSA on Dextran T70-COOH-PDEA (428018) surfaces; format: binding; conditions: 10 μg/ml
Experimental: 4 flow cells having polymer treated surfaces were prepared. Flow cells (FC) 1, 2 & 3—were all activated by exposure for 7 min to […] (200 mM/50 mM). FC 3 only was then treated for 7 min with 50 μg/ml mouse anti-biotin IgG in 10 mM NaOAc buffer pH 4.5. FC 2 only was coupled to 50 μg/ml an irrelevant mouse monoclonal IgG in 10 mM NaOAc buffer pH 4.5 (7 minute exposure). FC 1, 2, 3—were capped by treatment for 5 min with ethanolamine (1 M, pH 8.5). FC 4 comprised untreated polymer.
Dextran T70-COOH-PDEA (428018) was deposited and mouse anti-biotin IgG was immobilised using the same procedure as in Example 7. The measurement of the immobilisation is shown in FIG. 12, which again is a graph of response (RU) against time (seconds).

| Compound | frequency shift on CAII surface [1] [Hz] | frequency shift on capture by CAII surface ([1]; 25 μm in running PBSS buffer + […] MeOH) [Hz] | binding to anti-biotin IgG surface (FC3) ([2]; FC3) | binding to control surfaces (FC1, 2 and 4) ([2]; capped polymer, irrelevant mouse IgG, unactivated polymer) |
| --- | --- | --- | --- | --- |
| NS(=O)(=O)c1ccc(C(=O)O)cc1 [4-carboxybenzenesulfonamide] | 2.5 | 6 |  |  |
| CN(C)c1cccc2c(S(N)(=O)=O)cccc12 [5-(dimethylamino)-1-naphthalenesulfonamide] | 1.2 |  |  |  |
| biotinylated BSA: biotinylated bovine serum albumin used as analyte |  |  | Specific binding occurs | minimal non-specific binding |
